Reference: patent US7786308B2 (priority 2005, dated 2010)
Like-named read-outs stand apart in the source and are kept apart here.

How the values were obtained:
Experiment in all cases: cell-based
M1 muscarinic receptor = target: T1, M1 muscarinic receptor (Homo sapiens, UniProt P11229); conditions: for Emax: read-out: M1 Efficacy
T1 construct: expressed in transfected cells; host or cells: CHO (M1-CHO)
T1 sequence (P11229 1-460): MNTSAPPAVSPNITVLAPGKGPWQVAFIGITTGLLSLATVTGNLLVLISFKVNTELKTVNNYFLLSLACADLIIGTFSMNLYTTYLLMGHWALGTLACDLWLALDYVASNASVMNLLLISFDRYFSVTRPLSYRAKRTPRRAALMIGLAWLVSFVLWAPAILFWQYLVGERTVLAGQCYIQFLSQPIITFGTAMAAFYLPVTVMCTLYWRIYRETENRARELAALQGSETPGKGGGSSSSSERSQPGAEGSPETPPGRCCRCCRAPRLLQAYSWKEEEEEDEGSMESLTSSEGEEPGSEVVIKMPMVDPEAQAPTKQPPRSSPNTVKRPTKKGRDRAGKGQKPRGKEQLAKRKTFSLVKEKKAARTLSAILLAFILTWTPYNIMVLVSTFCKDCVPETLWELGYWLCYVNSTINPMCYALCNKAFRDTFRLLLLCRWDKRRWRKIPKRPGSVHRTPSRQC

M2 muscarinic receptor = target: T2, M2 muscarinic receptor (Homo sapiens, UniProt P08172); conditions: for Emax: read-out: M2 Efficacy
T2 construct: expressed in transfected cells; host or cells: CHO (M2-CHO)
T2 sequence (P08172 1-466): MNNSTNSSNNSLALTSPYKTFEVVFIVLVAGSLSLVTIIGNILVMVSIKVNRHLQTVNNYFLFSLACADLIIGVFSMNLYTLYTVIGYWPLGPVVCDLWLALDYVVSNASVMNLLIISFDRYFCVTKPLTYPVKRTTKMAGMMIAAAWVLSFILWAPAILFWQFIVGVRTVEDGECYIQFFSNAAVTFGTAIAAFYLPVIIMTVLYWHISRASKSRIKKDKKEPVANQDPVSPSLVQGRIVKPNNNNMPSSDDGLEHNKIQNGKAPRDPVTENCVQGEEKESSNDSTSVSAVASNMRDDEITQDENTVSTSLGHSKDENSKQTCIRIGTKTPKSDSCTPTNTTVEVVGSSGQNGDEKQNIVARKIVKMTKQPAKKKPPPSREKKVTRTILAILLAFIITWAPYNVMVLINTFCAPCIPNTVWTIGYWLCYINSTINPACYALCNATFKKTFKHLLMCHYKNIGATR

M3 muscarinic receptor = target: T3, M3 muscarinic receptor (Homo sapiens, UniProt P20309); conditions: for Emax: read-out: M3 Efficacy
T3 construct: expressed in transfected cells; host or cells: CHO (M3-CHO)

M4 muscarinic receptor = target: T4, M4 muscarinic receptor (Homo sapiens, UniProt P08173); conditions: for Emax: read-out: M4 Efficacy
T4 construct: expressed in transfected cells; host or cells: CHO (M4-CHO)
T4 sequence (P08173 1-479): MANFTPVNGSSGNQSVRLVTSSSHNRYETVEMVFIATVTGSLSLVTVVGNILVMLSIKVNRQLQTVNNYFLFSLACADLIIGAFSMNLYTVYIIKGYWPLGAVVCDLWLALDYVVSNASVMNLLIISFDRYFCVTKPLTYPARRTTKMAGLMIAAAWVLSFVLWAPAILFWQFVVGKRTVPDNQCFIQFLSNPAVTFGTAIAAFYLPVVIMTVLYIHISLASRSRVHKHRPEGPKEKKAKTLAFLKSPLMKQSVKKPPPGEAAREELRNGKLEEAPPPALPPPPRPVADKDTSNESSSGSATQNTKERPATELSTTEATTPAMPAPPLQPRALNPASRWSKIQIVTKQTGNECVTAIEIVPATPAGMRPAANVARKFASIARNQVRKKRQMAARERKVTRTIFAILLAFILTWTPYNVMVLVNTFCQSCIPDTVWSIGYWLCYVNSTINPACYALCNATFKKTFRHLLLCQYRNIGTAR

T3 sequence (P20309 whole entry): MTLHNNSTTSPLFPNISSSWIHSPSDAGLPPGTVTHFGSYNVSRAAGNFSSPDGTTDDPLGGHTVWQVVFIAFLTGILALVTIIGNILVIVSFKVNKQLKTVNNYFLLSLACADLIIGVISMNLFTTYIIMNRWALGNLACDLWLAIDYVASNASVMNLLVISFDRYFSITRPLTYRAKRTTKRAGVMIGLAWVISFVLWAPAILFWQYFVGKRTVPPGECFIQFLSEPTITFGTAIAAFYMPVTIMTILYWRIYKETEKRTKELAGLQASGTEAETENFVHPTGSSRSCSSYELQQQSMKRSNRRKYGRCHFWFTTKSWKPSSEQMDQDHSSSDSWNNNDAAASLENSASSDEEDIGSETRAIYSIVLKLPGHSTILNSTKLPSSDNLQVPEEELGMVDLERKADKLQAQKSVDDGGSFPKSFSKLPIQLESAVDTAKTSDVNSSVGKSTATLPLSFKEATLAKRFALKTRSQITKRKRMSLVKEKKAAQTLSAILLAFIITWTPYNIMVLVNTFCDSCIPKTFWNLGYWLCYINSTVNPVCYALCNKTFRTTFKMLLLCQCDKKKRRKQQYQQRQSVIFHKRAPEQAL

SMILES | EC50 (M1 muscarinic receptor) [µM] | Emax (M1 muscarinic receptor) [%] | EC50 (M2 muscarinic receptor) [µM] | Emax (M2 muscarinic receptor) [%] | EC50 (M3 muscarinic receptor) [µM] | Emax (M3 muscarinic receptor) [%] | EC50 (M4 muscarinic receptor) [µM] | Emax (M4 muscarinic receptor) [%] | EC50 (M1 muscarinic receptor; read-out: M1 Activity) [µM] | EC50 (M2 muscarinic receptor; read-out: M2 Activity) [µM] | EC50 (M3 muscarinic receptor; read-out: M3 Activity) [µM] | EC50 (M4 muscarinic receptor; read-out: M4 Activity) [µM] | M1 Efficacy (M1 muscarinic receptor) | M2 Efficacy (M2 muscarinic receptor) | M3 Efficacy (M3 muscarinic receptor) | M4 Efficacy (M4 muscarinic receptor)
CCOC(=O)N1C2CCC1CC(N1CCC(N(C)c3ccc(F)cc3)CC1)C2 (stereo not drawn) [Compound 9] | > 5 | 25 to 100 | > 5 | < 25 | > 5 | < 25 | > 5 | 25 to 100 |  |  |  |  |  |  |  | 
CCOC(=O)N1C2CCC1CC(N1CCC(N(C(C)=O)C3CCCC3)CC1)C2 (stereo not drawn) [Compound 15] | < 2 | 25 to 100 | < 2 | 25 to 100 | 2 to 5 | 25 to 100 | < 2 | 25 to 100 |  |  |  |  |  |  |  | 
CCCN(C1CCN(C2CC3CCC(C2)N3C(=O)OCC)CC1)S(=O)(=O)c1ccc(C(F)(F)F)cc1 (stereo not drawn) [Compound 19] | > 5 | < 25 | > 5 | < 25 | > 5 | < 25 | > 5 | < 25 |  |  |  |  |  |  |  | 
CCOC(=O)N1C2CCC1CC(N1CCC(N(CC(=O)CC)c3ccc(F)cc3)CC1)C2 (stereo not drawn) [Compound 20] | < 2 | 25 to 100 | > 5 | < 25 | > 5 | < 25 | > 5 | < 25 |  |  |  |  |  |  |  | 
CCOC(=O)N1C2CCC1CC(N1CCC(N(CC(=O)CC)c3ccc(F)cc3)CC1)C2 (stereo not drawn) [Compound 25] |  |  |  |  |  |  |  |  | < 2 | > 5 | > 5 | > 5 |  |  |  | 
CCOC(=O)N1C2CCC1CC(N1CCC(N(C)c3ccccc3)CC1)C2 (stereo not drawn) [Compound 27] | < 2 | 25 to 100 | > 5 | < 25 | > 5 | < 25 | > 5 | < 25 |  |  |  |  |  |  |  | 
CCOC(=O)N1C2CCC1CC(N1CCC(N(CC(C)C)S(=O)(=O)c3ccc(C(F)(F)F)cc3)CC1)C2 (stereo not drawn) [Compound 28] | > 5 | < 25 | > 5 | < 25 | > 5 | < 25 | > 5 | < 25 |  |  |  |  |  |  |  | 
CCOC(=O)N1C2CCC1CC(N1CCC(N(Cc3ccccc3)C(C)=O)CC1)C2 (stereo not drawn) [Compound 35] | < 2 | 25 to 100 | > 5 | 25 to 100 | > 5 | 25 to 100 | 2 to 5 | 25 to 100 |  |  |  |  |  |  |  | 
CCOC(=O)N1C2CCC1CC(N1CCC(N(CC)c3ccccc3)CC1)C2 (stereo not drawn) [Compound 37, 3-[4-(ethyl-phenyl-amino)-piperidin-1-yl]-8-azabicyclo[3.2.1]octane-8-carboxylic acid ethyl ester] | < 2 | 25 to 100 | > 5 | < 25 | > 5 | < 25 | < 2 | < 25 |  |  |  |  |  |  |  | 
CCOC(=O)N1C2CCC1CC(N1CCC(N(C(C)=O)C(C)C)CC1)C2 (stereo not drawn) [Compound 60] | 2 to 5 | 25 to 100 | > 5 | < 25 | > 5 | < 25 | > 5 | < 25 |  |  |  |  |  |  |  | 
CCOC(=O)N1C2CCC1CC(N1CCC(N(C(C)=O)C3CCCCC3)CC1)C2 (stereo not drawn) [Compound 63] | < 2 | 25 to 100 | 2 to 5 | < 25 | 2 to 5 | 25 to 100 | < 2 | 25 to 100 |  |  |  |  |  |  |  | 
CCOC(=O)N1C2CCC1CC(N1CCC(Nc3ccc(F)cc3)CC1)C2 (stereo not drawn) [Compound 64, 3-[4-(4-Fluoro-phenylamino)-piperidin-1-yl]-8-aza-bicyclo[3.2.1]octane-8-carboxylic acid ethyl ester] | 2 to 5 | 25 to 100 | > 5 | < 25 | > 5 | < 25 | > 5 | < 25 |  |  |  |  |  |  |  | 
CCOC(=O)N1C2CCC1CC(N1CCC(N(c3ccc(F)cc3)S(C)(=O)=O)CC1)C2 (stereo not drawn) [Compound 71, 3-{4-[(4-Fluoro-phenyl)-methanesulfonyl-amino]-piperidin-1-yl}-8-aza-bicyclo[3.2.1]octane-8-carboxylic acid ethyl ester] | < 2 | 25 to 100 | > 5 | < 25 | > 5 | 25 to 100 | 2 to 5 | 25 to 100 |  |  |  |  |  |  |  | 
CCOC(=O)N1C2CCC1CC(N1CCC3(CCC(=O)N3c3ccccc3)CC1)C2 (stereo not drawn) [Compound 88, Ethyl 3-(2-oxo-1-phenyl-1,8-diazaspiro[4.5]decan-8-yl)-8-azabicyclo[3.2.1]octane-8-carboxylate] | < 2 |  | < 2 |  | > 5 |  | < 2 |  |  |  |  |  | ++ (key: +++: efficacy was calculated to be greater than 100%; ++: efficacy was calculated to be from 100% to 25%; +: efficacy was calculated to be less than 25%; −: no data was available) | ++ (key: +++: efficacy was calculated to be greater than 100%; ++: efficacy was calculated to be from 100% to 25%; +: efficacy was calculated to be less than 25%; −: no data was available) | + (key: +++: efficacy was calculated to be greater than 100%; ++: efficacy was calculated to be from 100% to 25%; +: efficacy was calculated to be less than 25%; −: no data was available) | ++ (key: +++: efficacy was calculated to be greater than 100%; ++: efficacy was calculated to be from 100% to 25%; +: efficacy was calculated to be less than 25%; −: no data was available)
